According to patent publication US9828375B2, “4-position substituted pyrazolopyrimidine derivative, and use thereof in drug preparation” (Guangxi Wuzhou Pharmaceuticals (Group) Co., Ltd., priority 2012, dated 2017):

What was measured:
Type in all cases: biochemical
PDGFRα = PDGFRα (Homo sapiens, UniProt P16234); assay: Kinase inhibition activity test, isotope labeling: PDGFRα; details: for inhibition at 10 µM / Activity inhibition rate PDGFRα (h): test compound at a concentration of 10 μM; for inhibition at 10 µM: read-out: Activity inhibition rate PDGFRα (h); for IC50: ATP 120 μM, read-out: PDGFRα IC50 value (inhibitory activity value)
Chain of PDGFRα (P16234 24-1089): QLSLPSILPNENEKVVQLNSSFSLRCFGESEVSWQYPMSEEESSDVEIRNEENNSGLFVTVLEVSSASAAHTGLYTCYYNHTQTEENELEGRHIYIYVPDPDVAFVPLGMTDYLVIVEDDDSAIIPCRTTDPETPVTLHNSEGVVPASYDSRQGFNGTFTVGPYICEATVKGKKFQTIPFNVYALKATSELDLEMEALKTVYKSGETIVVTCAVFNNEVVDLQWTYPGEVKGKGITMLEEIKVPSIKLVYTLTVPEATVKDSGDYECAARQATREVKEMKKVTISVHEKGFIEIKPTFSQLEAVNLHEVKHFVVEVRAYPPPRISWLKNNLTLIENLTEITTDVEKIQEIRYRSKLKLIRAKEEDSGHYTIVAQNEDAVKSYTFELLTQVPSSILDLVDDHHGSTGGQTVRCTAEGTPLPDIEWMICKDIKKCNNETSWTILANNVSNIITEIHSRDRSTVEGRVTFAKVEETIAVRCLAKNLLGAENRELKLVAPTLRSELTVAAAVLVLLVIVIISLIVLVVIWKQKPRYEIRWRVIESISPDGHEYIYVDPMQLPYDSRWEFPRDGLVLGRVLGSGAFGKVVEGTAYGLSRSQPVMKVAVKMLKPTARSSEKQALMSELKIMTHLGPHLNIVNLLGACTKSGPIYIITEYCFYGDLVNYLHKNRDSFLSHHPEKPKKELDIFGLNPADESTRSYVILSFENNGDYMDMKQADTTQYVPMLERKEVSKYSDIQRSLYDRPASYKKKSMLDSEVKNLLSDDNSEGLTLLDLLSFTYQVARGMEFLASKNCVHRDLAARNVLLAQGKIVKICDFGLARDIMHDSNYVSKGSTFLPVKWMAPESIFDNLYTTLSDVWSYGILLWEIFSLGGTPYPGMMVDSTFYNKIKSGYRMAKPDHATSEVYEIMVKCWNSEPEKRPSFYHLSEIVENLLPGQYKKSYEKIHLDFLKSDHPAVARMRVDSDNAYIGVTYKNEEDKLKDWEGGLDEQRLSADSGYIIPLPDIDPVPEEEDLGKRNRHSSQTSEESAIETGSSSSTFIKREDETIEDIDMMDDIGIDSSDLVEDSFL
Experimental: (§1) The purpose of this experiment was to test the inhibitory activity of the compound of the invention for in vitro kinase with the isotope labeling method (the γ phosphate group on ATP was labeled). In this experiment, the in vitro activity inhibition of such kinases as FLT3, VEGFR2, FLT1, FLT4, RET, c-RAF, B-RAF, c-KIT, PDGFα, PDGFβ, FGFR2, FGFR1, EphA2, EphB2, SRC, ABL, ALK and Met was tested respectively. Staurosporine was reference molecule (or referred to as positive control). The kinase inhibition activity of the test compound was expressed by half-inhibitory concentration (IC50) or the kinase activity inhibition rate of the test compound at a concentration of 10 μM. The IC50 value could be obtained by calculating the kinase activity inhibition rate of the test compound at different concentrations.
(§2) 20 mM 3-(N-morpholinyl)propanesulfonic acid (MOPS); 1 mM ethylenediaminetetraacetic acid (EDTA), 0.01% Brij 35 (Brij-35), 5% glycerol, 0.1% mercaptoethanol, 1 mg/mL bovine serum albumin (BSA), 10 mM manganous dichloride solution (MnCl2), 0.1 mg/mL glutamic acid/tyrosine (4:1) polypeptide (poly(Glu, Tyr)4:1), 50 μM EAIYAAPFAKKK (substrate of FLT3), 0.33 mg/mL myelin basic protein (substrate of VEGFR2), 250 μM KKKSPGEYVNIEFG (substrate of FLT1(h)), 500 μM GGEEEEYFELVKKKK (substrate of FLT4(h)), 250 μM KKKSPGEYVNIEFG (substrate of RET), 0.66 mg/mL myelin basic protein (substrate of C-RAF), 250 μM GGMEDIYFEFMGGKKK (substrate of c-Kit), 250 μM GGMEDIYFEFMGGKKK (substrate of PDGFα), 250 μM KKKSPGEYVNIEFG (substrate of FGFR1), […] GGEEEEYFELVKKKK (substrate of SRC), 50 μM EAIYAAPFAKKK (substrate of ABL), 250 μM KKKSPGEYVNIEFG (substrate of ALK), 250 μM KKKSPGEYVNIEFG (substrate of Met(h)), 10 mM magnesium acetate and γ-^33 P-ATP solution, stop buffer (3% phosphate buffer), washing buffer (75 mM phosphate solution), methanol, Filtermat A membrane, FLT3, VEGFR2, FLT3, VEGFR2, FLT1, FLT4, RET, c-RAF, B-RAF, c-KIT, PDGFRα, PDGFRβ, FGFR2, FGFR1, EphA2, EphB2, SRC, ABL, ALK, Met and other kinases, and the test compounds.
(§3) Buffers (8 mM MOPS with pH value of 7.0, 0.2 mM EDTA and 10 mM MnCl2), (5-10 mU) kinases to be tested (FLT3, VEGFR2, FLT1, FLT4, RET, c-RAF, B-RAF, c-KIT, PDGFRα, PDGFRβ, FGFR2, FGFR1, EphA2, EphB2, SRC, ABL, ALK and Met), substrates of kinases to be tested (refer to experimental materials), 10 mM magnesium acetate and γ-^33 P-ATP solution, and test compounds at different concentrations were added to a reaction tube orderly. […] Reaction was terminated with 5 μL 3% phosphate buffer finally, and 10 μL reaction solution was titrated to the Filtermat A membrane; solution was washed for 3 times with 75 mM phosphate solution with each time lasting 5 minutes, and then washed once with methanol. Finally, the Filtermat A membrane was dried, and scintillation counting was performed on the membrane, with scintillation count reflecting the phosphorylation degree of the substrates, so that the activity inhibition of kinase could be characterized.

FLT3 = biological target: T1, FLT3 (Homo sapiens, UniProt P36888); assay: Kinase inhibition activity test, isotope labeling (γ-33P-ATP): FLT3; details: for inhibition at 10 µM / Activity inhibition rate Flt3 (h): test compound at a concentration of 10 μM; for inhibition at 10 µM: read-out: Activity inhibition rate Flt3 (h); for IC50: ATP 200 μM, read-out: FLT3 IC50 value (inhibitory activity value)
T1 sequence (P36888 27-993): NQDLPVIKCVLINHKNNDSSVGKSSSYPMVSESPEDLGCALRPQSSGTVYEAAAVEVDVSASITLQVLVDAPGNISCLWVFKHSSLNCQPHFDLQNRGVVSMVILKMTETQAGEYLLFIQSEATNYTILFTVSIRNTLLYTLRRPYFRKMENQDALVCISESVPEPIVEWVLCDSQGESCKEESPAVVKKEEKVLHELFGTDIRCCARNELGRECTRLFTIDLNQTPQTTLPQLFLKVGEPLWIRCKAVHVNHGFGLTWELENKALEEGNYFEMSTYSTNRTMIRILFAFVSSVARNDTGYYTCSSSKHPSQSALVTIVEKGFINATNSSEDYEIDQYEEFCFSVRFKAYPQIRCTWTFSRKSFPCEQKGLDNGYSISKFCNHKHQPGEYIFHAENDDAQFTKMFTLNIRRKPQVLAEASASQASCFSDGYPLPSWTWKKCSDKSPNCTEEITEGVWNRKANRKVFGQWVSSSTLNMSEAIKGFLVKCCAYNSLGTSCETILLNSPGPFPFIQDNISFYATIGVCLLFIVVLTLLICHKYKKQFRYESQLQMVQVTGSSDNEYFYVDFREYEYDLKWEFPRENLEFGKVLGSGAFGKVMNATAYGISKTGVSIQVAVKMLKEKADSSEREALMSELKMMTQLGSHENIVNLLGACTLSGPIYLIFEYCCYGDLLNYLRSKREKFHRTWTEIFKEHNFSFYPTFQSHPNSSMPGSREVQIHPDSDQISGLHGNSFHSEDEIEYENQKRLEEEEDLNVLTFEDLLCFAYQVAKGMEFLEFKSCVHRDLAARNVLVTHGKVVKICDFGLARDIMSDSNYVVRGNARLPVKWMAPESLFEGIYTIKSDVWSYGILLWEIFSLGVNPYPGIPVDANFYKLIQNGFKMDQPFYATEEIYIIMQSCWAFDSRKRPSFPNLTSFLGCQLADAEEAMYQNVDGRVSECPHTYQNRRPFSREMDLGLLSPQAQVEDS
Experimental: as §1, §2, §3

VEGFR2 = VEGFR2 (Homo sapiens, UniProt P35968); assay: Kinase inhibition activity test, isotope labeling (γ-33P-ATP): VEGFR2; details: for inhibition at 10 µM / Activity inhibition rate VEGFR2 (h): test compound at a concentration of 10 μM; for inhibition at 10 µM: read-out: Activity inhibition rate VEGFR2 (h); for IC50: ATP 90 μM, read-out: VEGFR2 IC50 value (inhibitory activity value)
Chain of VEGFR2 (P35968 20-1356): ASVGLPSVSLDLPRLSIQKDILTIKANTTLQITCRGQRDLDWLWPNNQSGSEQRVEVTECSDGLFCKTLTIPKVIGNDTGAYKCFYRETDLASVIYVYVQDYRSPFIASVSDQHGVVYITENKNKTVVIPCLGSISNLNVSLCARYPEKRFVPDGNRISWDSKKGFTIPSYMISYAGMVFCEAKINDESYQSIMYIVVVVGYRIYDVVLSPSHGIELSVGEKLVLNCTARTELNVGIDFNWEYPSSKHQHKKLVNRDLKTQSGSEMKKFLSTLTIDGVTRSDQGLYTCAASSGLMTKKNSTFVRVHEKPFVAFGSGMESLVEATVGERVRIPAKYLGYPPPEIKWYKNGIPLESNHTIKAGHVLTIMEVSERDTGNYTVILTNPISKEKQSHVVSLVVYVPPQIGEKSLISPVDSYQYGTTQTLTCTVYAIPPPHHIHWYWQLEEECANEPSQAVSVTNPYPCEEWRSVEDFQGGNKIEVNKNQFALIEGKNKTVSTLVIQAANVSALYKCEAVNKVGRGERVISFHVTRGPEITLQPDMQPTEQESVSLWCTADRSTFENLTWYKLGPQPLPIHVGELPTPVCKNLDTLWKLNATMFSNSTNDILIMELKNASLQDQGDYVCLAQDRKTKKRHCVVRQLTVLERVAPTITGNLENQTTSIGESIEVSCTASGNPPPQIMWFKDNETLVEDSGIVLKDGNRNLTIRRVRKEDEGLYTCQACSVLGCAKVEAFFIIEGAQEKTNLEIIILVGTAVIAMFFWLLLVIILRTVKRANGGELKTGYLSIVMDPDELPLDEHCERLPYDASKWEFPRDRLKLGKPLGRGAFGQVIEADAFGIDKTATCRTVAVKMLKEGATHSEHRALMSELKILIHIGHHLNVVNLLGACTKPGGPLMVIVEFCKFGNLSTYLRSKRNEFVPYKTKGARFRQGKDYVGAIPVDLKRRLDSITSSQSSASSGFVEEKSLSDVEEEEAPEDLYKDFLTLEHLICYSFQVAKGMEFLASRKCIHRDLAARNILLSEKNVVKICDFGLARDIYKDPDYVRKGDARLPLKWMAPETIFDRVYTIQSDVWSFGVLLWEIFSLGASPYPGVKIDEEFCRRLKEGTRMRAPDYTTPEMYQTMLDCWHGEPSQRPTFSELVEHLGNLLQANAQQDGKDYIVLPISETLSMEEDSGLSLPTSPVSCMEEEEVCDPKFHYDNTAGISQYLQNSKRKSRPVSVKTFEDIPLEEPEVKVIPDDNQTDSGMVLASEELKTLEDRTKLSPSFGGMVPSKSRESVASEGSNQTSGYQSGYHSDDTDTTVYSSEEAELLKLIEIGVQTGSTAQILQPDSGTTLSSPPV
Experimental: as §1, §2, §3

Molecule	inhibition at 10 µM (PDGFRα) [%]	inhibition at 10 µM (FLT3) [%]	inhibition at 10 µM (VEGFR2) [%]	Activity inhibition rate PDGFRα (h) (PDGFRα) [%]	IC50 (FLT3) [nM]	Activity inhibition rate Flt3 (h) (FLT3) [%]	IC50 (VEGFR2) [nM]	Activity inhibition rate VEGFR2 (h) (VEGFR2) [%]	Activity inhibition rate Flt3 (h) (FLT3; 10 µM) [%]	IC50 (PDGFRα) [nM]
CC(C)n1ncc2c(Oc3ccc(NC(=O)Nc4cc(C(C)(C)C)on4)cc3)ncnc21 [5a-4, 1-(5-tert-butylisoxazol-3-yl)-3-(4-(1-isopropyl-(1H-pyrazolopyrimidine-4-yl)oxy)phenyl)urea]	> 30	> 90	> 90							
O=C(Nc1ccc(C(F)(F)F)cc1)Nc1ccc(Oc2ncnc3[nH]ncc23)c(F)c1 [4a-9, 1-(4-((1H-pyrazolopyrimidine-4-yl)oxy)-3-fluorophenyl)-3-(4-(trifluoromethyl)phenyl)urea]				24	18	100	19	100		
O=C(Nc1ccc(Oc2ncnc3[nH]ncc23)cc1)Nc1ccc(C(F)(F)F)cc1 [4a-1]	63	100	100		27		30			
CC(C)(C)c1cc(NC(=O)Nc2ccc(Oc3ncnc4[nH]ncc34)cc2)n(-c2ccccc2)n1 [4a-24]				>50	17	100	14	100		
CC(C)(C)c1cc(NC(=O)Nc2ccc(Oc3ncnc4[nH]ncc34)cc2)no1 [4a-26]	> 50	100	100		8		12			
COc1cccc(NC(=O)Nc2ccc(Nc3ncnc4[nH]ncc34)cc2)c1 [4b-3]	> 30	72	96							
O=C(Nc1cccc(Nc2ncnc3[nH]ncc23)c1)Nc1ccc(F)c(Cl)c1 [4b-1]	> 30	30	93							
O=C(Nc1ccc(Oc2ncnc3[nH]ncc23)cc1)Nc1cccc(C(F)(F)F)c1 [4a-6]	97	100	100		9		11			322
O=C(Nc1ccc(NC(=O)N2C=NC=C3NNC=C32)cc1)Nc1ccc(Cl)c(C(F)(F)F)c1 [4b-5, 1-(4-(1H-pyrazolopyrimidine-4-amido)phenyl)-3-(4-chloro-3-(trifluoromethyl)phenyl)urea]	> 30	95	97							
CC(C)c1cccc(NC(=O)Nc2ccc(Oc3ncnc4[nH]ncc34)c(F)c2)c1 [4a-7, 1-(4-((1H-pyrazolopyrimidine-4-yl)oxy)-3-fluorophenyl)-3-(3-isopropylphenyl)urea]				89	36	100	32	100		
O=C(Nc1ccc(Sc2ncnc3[nH]ncc23)cc1)Nc1cccc(C(F)(F)F)c1 [4c-2]				>50		>90		100		
Cc1cc(C)c(NC(=O)Nc2ccc(NC(=O)N3C=NC=C4NNC=C43)cc2)c(C)c1 [4b-7, 1-(4-(1H-pyrazolopyrimidine-4-amido)phenyl)-3-(2,4,6-trimethylphenyl)urea]	> 30	91	92							
O=C(Nc1ccc(Oc2ncnc3[nH]ncc23)cc1)Nc1ccc(N2CCOCC2)cc1 [4a-16, 1-(4-((1H-pyrazolopyrimidine-4-yl)oxy)phenyl)-3-(4-morpholinylphenyl)urea]		76	91							

Now from value to molecule, other results behind:

inhibition at 10 µM (PDGFRα) [%]	inhibition at 10 µM (FLT3) [%]	inhibition at 10 µM (VEGFR2) [%]	Activity inhibition rate PDGFRα (h) (PDGFRα) [%]	IC50 (FLT3) [nM]	Activity inhibition rate Flt3 (h) (FLT3) [%]	IC50 (VEGFR2) [nM]	Activity inhibition rate VEGFR2 (h) (VEGFR2) [%]	Activity inhibition rate Flt3 (h) (FLT3; 10 µM) [%]	Molecule	IC50 (PDGFRα) [nM]
> 50	100	100							O=C(Nc1ccc(Oc2ncnc3[nH]ncc23)cc1)Nc1cc(C(F)(F)F)on1 [4a-28]	
			>50		>90		100		CC(C)(C)c1cc(NC(=O)Nc2ccc(Sc3ncnc4[nH]ncc34)cc2)no1 [4c-3, 1-(4-(1H-pyrazolopyrimidine-4-sulfydryl)phenyl)-3-(5-tert-butylisoxazol-3-yl)urea]	
			>50	5	100	11	100		CC(C)(C)c1cc(NC(=O)Nc2ccc(Oc3ncnc4[nH]ncc34)c(F)c2)no1 [4a-31]	< 10000
> 30		88						0	C[C@@H](NC(=O)Nc1ccc(Nc2ncnc3[nH]ncc23)cc1)c1ccccc1 [4b-2, (R)-1-(4-(1H-pyrazolopyrimidine-4-amido)phenyl)-3-(1-phenethyl)urea]	
			96		81		95		C[C@H](NC(=O)Nc1ccc(Oc2ncnc3[nH]ncc23)cc1)c1ccccc1 [4a-18, (S)-1-(4-((1H-pyrazolopyrimidine-4-yl)oxy)phenyl)-3-(1-phenethyl)urea]	
			93		66		64		1-(4-((1H-pyrazolopyrimidine-4-yl)oxy)phenyl)-3-(methylcyclohexyl)urea [4a-20]	
			84		73		92		C[C@@H](NC(=O)Nc1ccc(Oc2ncnc3[nH]ncc23)cc1)c1ccccc1 [4a-19, (R)-1-(4-((1H-pyrazolopyrimidine-4-yl)oxy)phenyl)-3-(1-phenethyl)urea]	
